Results reported in ChEMBL document CHEMBL4622882, “Discovery of a novel indole pharmacophore for the irreversible inhibition of myeloperoxidase (MPO)” (Bioorg Med Chem, 2020).
≈ marks a conversion by molar mass, not a printed value. Calls of active or inactive are those of the source. The rule behind the calls is not given here.

Assays:
[1] = Elimination half life in mouse at 1 mg/kg, iv; assay type: ADME, organism-based; details: in vivo, read-out: beta t1/2 (converted)
[2] = target: T1, Myeloperoxidase (Homo sapiens) (UniProt P05164); assay: Irreversible inhibition of human myeloperoxidase using H2O2 as substrate at 200 fold dilution and measured after 72 hrs by dialysis method
T1 sequence (whole entry): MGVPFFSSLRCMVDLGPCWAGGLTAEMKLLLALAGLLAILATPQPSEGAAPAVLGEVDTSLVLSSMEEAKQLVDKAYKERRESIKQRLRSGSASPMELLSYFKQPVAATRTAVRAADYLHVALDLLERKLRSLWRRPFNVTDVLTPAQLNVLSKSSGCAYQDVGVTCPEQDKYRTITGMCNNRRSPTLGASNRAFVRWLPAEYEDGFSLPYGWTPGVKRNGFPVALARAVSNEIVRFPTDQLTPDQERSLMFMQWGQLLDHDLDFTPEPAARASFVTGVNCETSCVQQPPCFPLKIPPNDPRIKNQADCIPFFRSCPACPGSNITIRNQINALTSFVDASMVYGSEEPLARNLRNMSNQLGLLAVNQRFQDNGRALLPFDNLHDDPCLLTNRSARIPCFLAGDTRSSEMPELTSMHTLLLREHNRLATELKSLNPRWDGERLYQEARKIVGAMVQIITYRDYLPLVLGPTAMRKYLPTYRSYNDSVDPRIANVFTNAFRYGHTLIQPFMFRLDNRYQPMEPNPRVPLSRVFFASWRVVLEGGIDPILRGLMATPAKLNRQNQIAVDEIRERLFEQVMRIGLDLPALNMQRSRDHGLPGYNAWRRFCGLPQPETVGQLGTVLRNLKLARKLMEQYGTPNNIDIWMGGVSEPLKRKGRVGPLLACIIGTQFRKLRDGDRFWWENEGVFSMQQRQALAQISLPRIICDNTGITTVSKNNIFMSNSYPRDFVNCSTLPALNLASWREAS

Cytochrome P450 3A4 = Cytochrome P450 3A4 (Homo sapiens, UniProt P08684); assay: Inhibition of CYP3A4 (unknown origin); assay type: ADME
[3] = Solubility of the compound at pH 6.8; assay type: physicochemical; details: buffer
Mus musculus = assay: Antiinflammatory activity against mouse model of thioglycolate/zymosan A induced peritonitis assessed as decrease in myeloperoxidase activity at 90 mg/kg, po pretreated for 4 hrs followed by zymosan A stimulation by ELISA; assay type: functional; set-up: scale not given: the % may be the effect or the level left
[4] = Cmax in mouse at 10 mg/kg, po; assay type: ADME, organism-based; set-up: dose 10 mg/kg, route oral; details: in vivo
[5] = Plasma protein binding in mouse at 1mg/kg, iv or 10 mg/kg, po; assay type: ADME, organism-based; details: read-out: PPB (converted)
Cytochrome P450 2D6 = Cytochrome P450 2D6 (Homo sapiens, UniProt P10635); assay: Inhibition of CYP2D6 (unknown origin); assay type: ADME
[6] = target: T1, Myeloperoxidase (Homo sapiens); assay: Inhibition of myeloperoxidase (unknown origin) assessed as ratio of Kinact to Ki
[7] = Plasma clearance in mouse at 1 mg/kg, iv; assay type: ADME, organism-based
[8] = AUCinfinity in mouse at 10 mg/kg, po; assay type: ADME, organism-based; set-up: dose 10 mg/kg, route oral, time infinity; details: in vivo
[9] = target: T1, Myeloperoxidase (Homo sapiens); assay: Inhibition of myeloperoxidase (unknown origin) assessed as partition ratio by Amplex red based fluorescence assay
Myeloperoxidase [10] = target: T2, Myeloperoxidase (Homo sapiens, UniProt P05164); assay: Inhibition of myeloperoxidase (unknown origin)
T2 sequence (P05164 whole entry): T1 sequence (whole entry)

[11] = Unbound Cmax in mouse at 10 mg/kg, po; assay type: ADME, organism-based; details: in vivo
[12] = Oral bioavailability in mouse at 10 mg/kg; assay type: ADME, organism-based; details: in vivo
Myeloperoxidase [13] = target: T2, Myeloperoxidase; assay: Inhibition of human plasma myeloperoxidase
[14] = Volume of distribution at steady state in mouse at 1 mg/kg, iv; assay type: ADME, organism-based; details: in vivo, read-out: Vdss
Thyroid peroxidase = target: T3, Thyroid peroxidase (Homo sapiens, UniProt P07202); assay: Inhibition of thyroid peroxidase (unknown origin)
T3 sequence (P07202 whole entry): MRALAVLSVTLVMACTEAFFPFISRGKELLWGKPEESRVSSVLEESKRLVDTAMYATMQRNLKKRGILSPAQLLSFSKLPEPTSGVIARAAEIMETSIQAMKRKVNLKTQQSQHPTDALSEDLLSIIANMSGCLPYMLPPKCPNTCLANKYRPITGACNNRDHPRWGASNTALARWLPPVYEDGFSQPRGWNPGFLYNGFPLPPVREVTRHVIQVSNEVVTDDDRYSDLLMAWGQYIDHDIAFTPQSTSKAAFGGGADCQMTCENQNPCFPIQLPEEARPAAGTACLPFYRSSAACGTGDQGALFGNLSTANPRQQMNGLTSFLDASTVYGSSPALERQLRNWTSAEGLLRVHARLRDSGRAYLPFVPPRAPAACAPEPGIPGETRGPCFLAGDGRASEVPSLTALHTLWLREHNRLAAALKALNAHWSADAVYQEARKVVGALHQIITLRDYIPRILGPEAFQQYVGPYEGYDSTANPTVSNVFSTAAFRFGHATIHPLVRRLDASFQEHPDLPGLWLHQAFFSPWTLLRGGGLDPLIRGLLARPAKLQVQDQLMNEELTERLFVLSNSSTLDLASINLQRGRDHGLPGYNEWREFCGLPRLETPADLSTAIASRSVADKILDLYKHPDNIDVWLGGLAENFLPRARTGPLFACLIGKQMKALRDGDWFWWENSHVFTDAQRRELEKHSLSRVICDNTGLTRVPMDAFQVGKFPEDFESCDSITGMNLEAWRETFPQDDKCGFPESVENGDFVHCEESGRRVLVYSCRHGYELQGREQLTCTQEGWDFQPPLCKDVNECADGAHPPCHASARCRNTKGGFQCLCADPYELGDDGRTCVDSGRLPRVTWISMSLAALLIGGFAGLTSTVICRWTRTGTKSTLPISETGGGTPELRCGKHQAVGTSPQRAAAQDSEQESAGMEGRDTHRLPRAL

[15] = target: Voltage-gated inwardly rectifying potassium channel KCNH2 (Homo sapiens, UniProt Q12809); assay: Inhibition of human ERG
[16] = Plasma protein binding in human; assay type: ADME, cell-free; details: read-out: PPB (converted)
[17] = Volume of distribution at steady state in mouse at 0.5 mg/kg, iv; assay type: ADME, organism-based; details: in vivo, read-out: Vdss
[18] = Elimination half life in mouse at 0.5 mg/kg, iv; assay type: ADME, organism-based; details: in vivo, read-out: beta t1/2 (converted)
[19] = Plasma protein binding in mouse at 0.5 mg/kg, iv or 10 mg/kg, po; assay type: ADME, organism-based; details: read-out: PPB (converted)
[20] = target: T1, Myeloperoxidase (Homo sapiens); assay: Irreversible inhibition of human myeloperoxidase assessed as residual activity using H2O2 as substrate at 200 fold dilution and measured after 72 hrs by dialysis method
[21] = target: T1, Myeloperoxidase (Homo sapiens); assay: Irreversible inhibition of myeloperoxidase (unknown origin) at 1000 fold dilution
Armoracia rusticana = assay: Irreversible inhibition of horseradish peroxidase at 1000 fold dilution
[22] = target: T4, Thyroid peroxidase (Homo sapiens) (UniProt P07202); assay: Irreversible inhibition of thyroid peroxidase (unknown origin) at 1000 fold dilution
T4 sequence (whole entry): T3 sequence (P07202 whole entry)

Chain of Voltage-gated inwardly rectifying potassium channel KCNH2 (Q12809 whole entry): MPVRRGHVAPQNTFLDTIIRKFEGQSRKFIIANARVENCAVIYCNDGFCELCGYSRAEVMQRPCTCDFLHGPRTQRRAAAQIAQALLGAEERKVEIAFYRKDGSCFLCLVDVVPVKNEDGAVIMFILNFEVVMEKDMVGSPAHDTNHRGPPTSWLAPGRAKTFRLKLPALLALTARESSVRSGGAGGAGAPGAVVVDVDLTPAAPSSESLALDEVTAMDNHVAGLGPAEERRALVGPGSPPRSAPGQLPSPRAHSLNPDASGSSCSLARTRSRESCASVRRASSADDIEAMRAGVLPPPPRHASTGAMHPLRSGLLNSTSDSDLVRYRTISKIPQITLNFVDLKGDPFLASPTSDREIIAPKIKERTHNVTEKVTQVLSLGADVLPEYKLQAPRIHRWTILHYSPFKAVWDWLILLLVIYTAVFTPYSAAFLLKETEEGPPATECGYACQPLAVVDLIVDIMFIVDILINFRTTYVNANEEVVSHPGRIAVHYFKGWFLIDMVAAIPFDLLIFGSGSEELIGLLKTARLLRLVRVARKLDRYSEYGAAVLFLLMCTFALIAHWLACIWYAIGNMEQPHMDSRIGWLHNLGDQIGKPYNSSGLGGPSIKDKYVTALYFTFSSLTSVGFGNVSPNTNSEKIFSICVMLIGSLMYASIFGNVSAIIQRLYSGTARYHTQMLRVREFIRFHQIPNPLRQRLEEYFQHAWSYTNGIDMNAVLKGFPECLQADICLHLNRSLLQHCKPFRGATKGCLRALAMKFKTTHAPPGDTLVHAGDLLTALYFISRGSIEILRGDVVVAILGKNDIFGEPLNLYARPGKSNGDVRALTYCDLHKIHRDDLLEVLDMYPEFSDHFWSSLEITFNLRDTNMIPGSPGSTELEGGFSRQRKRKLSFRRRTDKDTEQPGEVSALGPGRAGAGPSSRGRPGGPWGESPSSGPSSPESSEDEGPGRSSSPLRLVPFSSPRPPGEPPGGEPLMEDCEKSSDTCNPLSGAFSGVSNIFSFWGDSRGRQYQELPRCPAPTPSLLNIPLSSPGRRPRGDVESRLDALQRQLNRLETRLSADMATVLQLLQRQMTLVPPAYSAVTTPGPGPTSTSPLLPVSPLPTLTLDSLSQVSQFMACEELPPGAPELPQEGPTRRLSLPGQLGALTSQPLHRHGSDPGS
Chain of Cytochrome P450 3A4 (P08684 whole entry): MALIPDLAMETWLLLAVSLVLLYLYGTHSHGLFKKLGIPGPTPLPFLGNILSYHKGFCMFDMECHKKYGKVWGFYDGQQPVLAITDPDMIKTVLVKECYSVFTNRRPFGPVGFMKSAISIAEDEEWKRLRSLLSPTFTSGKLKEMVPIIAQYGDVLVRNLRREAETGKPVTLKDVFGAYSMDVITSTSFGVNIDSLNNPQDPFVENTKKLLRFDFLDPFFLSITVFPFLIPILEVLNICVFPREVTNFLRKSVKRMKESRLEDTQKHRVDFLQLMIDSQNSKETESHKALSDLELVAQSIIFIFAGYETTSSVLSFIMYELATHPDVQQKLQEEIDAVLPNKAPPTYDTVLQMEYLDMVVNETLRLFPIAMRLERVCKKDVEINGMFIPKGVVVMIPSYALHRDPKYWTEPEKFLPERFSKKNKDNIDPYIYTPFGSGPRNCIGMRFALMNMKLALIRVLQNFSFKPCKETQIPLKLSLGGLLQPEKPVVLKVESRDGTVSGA
Chain of Cytochrome P450 2D6 (P10635 whole entry): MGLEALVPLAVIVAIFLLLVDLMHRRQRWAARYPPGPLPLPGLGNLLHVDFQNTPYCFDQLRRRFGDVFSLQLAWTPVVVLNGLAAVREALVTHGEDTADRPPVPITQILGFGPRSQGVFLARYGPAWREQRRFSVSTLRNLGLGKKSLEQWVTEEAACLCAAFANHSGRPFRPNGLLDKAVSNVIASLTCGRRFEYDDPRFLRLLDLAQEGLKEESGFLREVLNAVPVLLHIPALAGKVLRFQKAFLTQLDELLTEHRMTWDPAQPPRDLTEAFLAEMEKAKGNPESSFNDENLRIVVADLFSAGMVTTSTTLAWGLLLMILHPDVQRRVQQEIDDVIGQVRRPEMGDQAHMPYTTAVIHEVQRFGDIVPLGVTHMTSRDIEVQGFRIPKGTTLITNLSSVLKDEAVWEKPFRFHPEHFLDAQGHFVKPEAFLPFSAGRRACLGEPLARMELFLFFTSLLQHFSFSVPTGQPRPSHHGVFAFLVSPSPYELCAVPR

Row | Structure (SMILES) | IC (Cytochrome P450 3A4) | solubility [3] | IC (Cytochrome P450 2D6) | Ratio [6] | Ratio [9] | IC50 (Myeloperoxidase [10]) | IC50 (Myeloperoxidase [13]) | IC50 (Thyroid peroxidase) | IC50 [15] | other results
1 | CN(C)Cc1ccc(-n2cc(-c3ccc4cc[nH]c4c3)c3c(Cl)ccnc32)cc1 | 17 µM | 21 µM (≈ 8.42 µg/mL) | 21 µM | 210000 M⁻¹ s⁻¹ | 3.7 | 120 nM | 2600 nM | 5300 nM | 1700 nM | half-life [1]: 2.6 h; inhibition [2]: Active; Activity (Mus musculus): 50%; Cmax [4]: 502 nM; fraction unbound [5]: 0.004; clearance [7]: 64.7 mL/min/kg; AUC(0-inf) [8]: 2.49 µM·h; fCmax [11]: 2 nM; bioavailability [12]: 61%; Vd [14]: 9.8 L/kg
2 | NC(=O)Cn1cc(-c2ccc3cc[nH]c3c2)c(C(F)(F)F)n1 | – | – | – | – | > 200 | 2000 nM | – | > 30000 nM | – | –
3 | FC(F)(F)c1nn(-c2ccc(Cc3nc[nH]n3)cc2)cc1-c1ccc2cc[nH]c2c1 | 6.9 µM | 11 µM (≈ 4.49 µg/mL) | 0.5 µM | 106000 M⁻¹ s⁻¹ | 12 | 250 nM | 23000 nM | 5900 nM | > 30000 nM | –
4 | NC(=O)CCn1cc(-c2ccc3cc[nH]c3c2)c(C(F)(F)F)n1 | – | – | – | – | > 200 | 4200 nM | – | > 30000 nM | – | –
5 | NC[C@H]1C[C@H](n2cc(-c3ccc4cc[nH]c4c3)c(C(F)(F)F)n2)C1 | – | – | – | – | 6.7 | 170 nM | – | > 30000 nM | – | –
6 | N[C@@H](c1ccc(-n2cc(-c3ccc4cc[nH]c4c3)c(C(F)(F)F)n2)cc1)C(F)(F)F | 17 µM | 21 µM (≈ 8.91 µg/mL) | 21 µM | 122000 M⁻¹ s⁻¹ | 17 | 420 nM | 18000 nM | > 30000 nM | > 30000 nM | –
7 | O=C(O)CCn1cc(-c2ccc3cc[nH]c3c2)c(C(F)(F)F)n1 | – | – | – | – | > 200 | 5200 nM | – | – | – | –
8 | N[C@@H]1CC[C@@H](n2cc(-c3ccc4cc[nH]c4c3)c(C(F)(F)F)n2)C1 | 34 µM | 587 µM (≈ 196 µg/mL) | > 50 µM | 230000 M⁻¹ s⁻¹ | 3.1 | 70 nM | 170 nM | > 30000 nM | 17000 nM | fraction unbound [16]: 0.034; Cmax [4]: 1990 nM; Vd [17]: 2.1 L/kg; clearance [7]: 16.1 mL/min/kg; AUC(0-inf) [8]: 22.9 µM·h; half-life [18]: 4.5 h; bioavailability [12]: 40%; fraction unbound [19]: 0.027
9 | Nc1ncnc2c1c(-c1ccc3cc[nH]c3c1)cn2-c1ccc(OCCNCCO)cc1 | > 50 µM | 46 µM (≈ 19.7 µg/mL) | > 50 µM | 23000 M⁻¹ s⁻¹ | 141 | 220 nM | – | 30000 nM | 2800 nM | Activity [20]: > 95%; inhibition [21]: Active; inhibition (Armoracia rusticana): inactive; inhibition [22]: inactive
10 | NCCCCn1cc(-c2ccc3cc[nH]c3c2)c(C(F)(F)F)n1 | > 50 µM | 73 µM (≈ 23.5 µg/mL) | 43 µM | 61000 M⁻¹ s⁻¹ | 42 | 330 nM | 900 nM | > 30000 nM | 1900 nM | –
11 | NCc1ccc(-n2cc(-c3ccc4cc[nH]c4c3)c(C(F)(F)F)n2)cc1 | 3.8 µM | 62 µM (≈ 22.1 µg/mL) | 1.4 µM | 430000 M⁻¹ s⁻¹ | 0.4 | 30 nM | 360 nM | > 30000 nM | 4000 nM | –
